According to publication PMC3335078, “Length and Amino Acid Sequence of Peptides Substituted for the 5-HT3A Receptor M3M4 Loop May Affect Channel Expression and Desensitization” (PLoS ONE, 2012):

Experiments:
Type in all cases: cell-based
[1] = molecular target: T1, 5-HT3A-A5 (M3M4 loop replaced by five alanines) (Mus musculus, UniProt P23979); assay: Two-electrode voltage clamp, oocytes expressing 5-HT3A-A5
T1 construct: expressed in transfected cells; host or cells: Xenopus laevis oocytes injected with mRNA
T1 sequence (P23979 with tags, fused parts or gaps isoform P23979-2 limits assumed): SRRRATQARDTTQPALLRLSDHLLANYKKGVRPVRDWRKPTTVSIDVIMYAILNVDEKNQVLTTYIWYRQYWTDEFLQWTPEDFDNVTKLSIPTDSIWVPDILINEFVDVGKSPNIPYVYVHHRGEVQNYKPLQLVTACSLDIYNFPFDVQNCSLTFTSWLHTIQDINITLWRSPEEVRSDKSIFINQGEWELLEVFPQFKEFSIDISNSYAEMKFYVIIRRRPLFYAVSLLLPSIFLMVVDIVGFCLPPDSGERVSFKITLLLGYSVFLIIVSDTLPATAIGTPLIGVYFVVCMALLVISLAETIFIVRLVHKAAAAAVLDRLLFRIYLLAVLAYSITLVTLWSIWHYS
Description: (§1) The mouse 5-HT3A cDNA with an N-terminal V5 epitope tag was cloned into the pXOON vector as previously described, and is referred to in this paper as “wild-type” (WT). The starting construct for all of the M3M4 loop replacement constructs used in this work was the 5-HT3A-ΔM3M4 construct formed by splicing the cytoplasmic end of M3 (M3-LVHK/QDLQRP…) to the cytoplasmic end of M4 (…WLRVGY/VLDRLL-M4). The splice was made at the site of the “/” to yield the sequence M3-LVHK/VLDRLL-M4 [34]. This removed 115 residues predicted to form the M3M4 loop.
(§2) The construction of the 5-HT3A-glvM3M4 chimera with the 5-HT3A M3M4 loop replaced by the GLIC heptapeptide M3M4 loop (SQPARAA) was described previously. Point mutations, alanine and Gly-Ser-Ala insertions into the 5-HT3A-ΔM3M4 construct were generated with the Quikchange site directed mutagenesis procedure (Stratagene, La Jolla, CA). The entire coding region of all mutant constructs was verified by DNA sequencing (Albert Einstein College of Medicine DNA Sequencing Facility). The pXOON plasmid was linearized using NheI and capped mRNA prepared with T7 RNA polymerase (mMessage mMachine, Ambion, Austin, TX).
(§3) Use of Xenopus laevis in this study was carried out in strict accordance with the recommendations in the Guide for the Care and Use of Laboratory Animals of the National Institutes of Health. The protocol was approved by the Albert Einstein College of Medicine Animal Care and Use Committee (Protocol Number: 20081201). All surgery was performed under tricaine anesthesia, and all efforts were made to minimize suffering. Oocyctes were harvested from Xenopus (Nasco Science, Fort Atkinson, WI) anesthetized with 0.15% tricaine. […]
(§4) Currents were recorded under two-electrode voltage clamp from oocytes 2–5 d post-injection as described previously. […]
(§5) Desensitization rates were determined by fitting a single exponential decay function to the current data with Prism 4 software (GraphPad Software). Significant differences compared with wild-type were determined by a one-way ANOVA (p<0.05) using Dunnett's multiple comparison post-hoc test (p<0.05). […]

[2] = molecular target: T2, 5-HT3A M3M4 loop AAPARAA construct (Mus musculus, UniProt P23979); assay: Two-electrode voltage clamp, oocytes expressing AAPARAA loop construct; settings: 10 µM 5-HT, Xenopus oocytes
T2 construct: expressed in transfected cells; host or cells: Xenopus laevis oocytes injected with mRNA
Description: as §1
(§6) The construction of the 5-HT3A-glvM3M4 chimera with the 5-HT3A M3M4 loop replaced by the GLIC heptapeptide M3M4 loop (SQPARAA) was described previously. Point mutations, alanine and Gly-Ser-Ala insertions into the 5-HT3A-ΔM3M4 construct were generated with the Quikchange site directed mutagenesis procedure (Stratagene, La Jolla, CA). […]
as §4, §5

[3] = molecular target: T3, 5-HT3A-A4 (M3M4 loop replaced by four alanines) (Mus musculus, UniProt P23979); assay: Two-electrode voltage clamp, oocytes expressing 5-HT3A-A4
T3 construct: expressed in transfected cells; host or cells: Xenopus laevis oocytes injected with mRNA
T3 sequence (P23979 with tags, fused parts or gaps isoform P23979-2 limits assumed): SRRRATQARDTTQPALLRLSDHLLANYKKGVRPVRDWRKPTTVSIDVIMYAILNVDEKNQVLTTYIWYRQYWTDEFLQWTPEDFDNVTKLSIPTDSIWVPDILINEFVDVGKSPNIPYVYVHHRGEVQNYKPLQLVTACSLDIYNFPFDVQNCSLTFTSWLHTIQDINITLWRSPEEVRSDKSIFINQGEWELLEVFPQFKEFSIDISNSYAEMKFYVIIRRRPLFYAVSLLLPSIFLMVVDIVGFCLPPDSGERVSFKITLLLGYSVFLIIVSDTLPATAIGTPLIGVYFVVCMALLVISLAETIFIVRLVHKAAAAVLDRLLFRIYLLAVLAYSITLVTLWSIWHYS
Description: as §1, §2, §3, §4, §5

[4] = molecular target: T4, 5-HT3A construct with single glycine in place of the single alanine (Mus musculus, UniProt P23979, DELINS338-452G); assay: Two-electrode voltage clamp, oocytes expressing single glycine loop construct; settings: Xenopus oocytes, data not shown
T4 construct: expressed in transfected cells; host or cells: Xenopus laevis oocytes injected with mRNA
Description: as §1, §6, §4, §5

[5] = molecular target: T5, 5-HT3A-A1 (M3M4 loop replaced by one alanine) (Mus musculus, UniProt P23979, DELINS338-452A); assay: Two-electrode voltage clamp, oocytes expressing 5-HT3A-A1
T5 construct: expressed in transfected cells; host or cells: Xenopus laevis oocytes injected with mRNA
T5 sequence (P23979 with tags, fused parts or gaps isoform P23979-2 DELINS338-452A limits assumed): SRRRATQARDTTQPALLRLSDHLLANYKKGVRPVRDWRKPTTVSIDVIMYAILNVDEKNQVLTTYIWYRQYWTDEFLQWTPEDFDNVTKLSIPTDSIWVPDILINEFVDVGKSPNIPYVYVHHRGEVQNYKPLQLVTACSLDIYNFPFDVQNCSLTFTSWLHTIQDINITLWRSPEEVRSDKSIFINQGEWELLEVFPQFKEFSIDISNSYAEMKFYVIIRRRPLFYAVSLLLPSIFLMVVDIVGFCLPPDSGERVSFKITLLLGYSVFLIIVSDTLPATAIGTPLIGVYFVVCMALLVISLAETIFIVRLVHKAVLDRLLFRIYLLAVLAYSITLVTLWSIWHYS
Description: as §1, §2
Use of Xenopus laevis in this study was carried out in strict accordance with the recommendations in the Guide for the Care and Use of Laboratory Animals of the National Institutes of Health. The protocol was approved by the Albert Einstein College of Medicine Animal Care and Use Committee (Protocol Number: 20081201). All surgery was performed under tricaine anesthesia, and all efforts were made to minimize suffering. Oocyctes were harvested from Xenopus (Nasco Science, Fort Atkinson, WI) anesthetized with 0.15% tricaine. Oocyctes were defolliculated by incubation in 2 mg ml^−1 Type 1A collagenase (Sigma-Aldrich, St. Louis, MO) in OR2 (85 mM NaCl, 2 mM KCl, 1 mM MgCl2, and 5 mM HEPES; pH adjusted to 7.5 with NaOH) for a 60 or 75 min. Oocytes were washed in OR2 and stored at 16°C in SOS medium: 100 mM NaCl, 2 mM KCl, 1 mM MgCl2, 1.8 mM CaCl2 5 mM HEPES, pH 7.5 with 100 IU ml^−1 penicillin, 100 µg ml^−1 streptomycin, and 250 ng ml^−1 amphotericin B (Invitrogen, Carlsbad, CA) and 5% horse serum (Sigma-Aldrich). 24 hrs following isolation, oocyctes were injected with 23 nl (2.3 ng) of mRNA and were kept in SOS media for 2–5 d at 16°C.
Currents were recorded under two-electrode voltage clamp from oocytes 2–5 d post-injection as described previously. […] The perfusion chamber volume was 200 µl. […]
as §5

[6] = 10 µM 5-HT, Xenopus oocytes, -60 mV

T2 sequence (P23979 with tags, fused parts or gaps): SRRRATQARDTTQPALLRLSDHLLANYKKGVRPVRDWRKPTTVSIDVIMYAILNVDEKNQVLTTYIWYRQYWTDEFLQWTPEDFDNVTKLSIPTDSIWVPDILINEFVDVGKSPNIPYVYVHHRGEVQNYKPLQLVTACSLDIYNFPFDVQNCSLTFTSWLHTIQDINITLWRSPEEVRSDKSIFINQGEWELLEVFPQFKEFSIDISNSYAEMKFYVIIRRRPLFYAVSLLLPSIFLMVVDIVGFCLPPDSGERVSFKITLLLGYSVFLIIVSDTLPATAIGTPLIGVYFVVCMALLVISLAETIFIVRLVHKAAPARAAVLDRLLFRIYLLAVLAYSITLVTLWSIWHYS
T4 sequence (P23979 with tags, fused parts or gaps isoform P23979-2 DELINS338-452G limits assumed): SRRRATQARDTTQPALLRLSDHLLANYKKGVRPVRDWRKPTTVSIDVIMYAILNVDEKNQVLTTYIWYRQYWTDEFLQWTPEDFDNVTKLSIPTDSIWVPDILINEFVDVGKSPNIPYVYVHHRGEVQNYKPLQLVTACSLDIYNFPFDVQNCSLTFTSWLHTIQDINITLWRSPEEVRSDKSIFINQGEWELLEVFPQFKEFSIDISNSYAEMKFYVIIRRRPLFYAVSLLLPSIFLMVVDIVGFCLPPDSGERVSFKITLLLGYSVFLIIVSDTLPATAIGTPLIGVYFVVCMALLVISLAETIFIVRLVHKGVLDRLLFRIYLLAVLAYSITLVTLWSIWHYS

With NCCc1c[nH]c2ccc(O)cc12 [5-HT, 5-hydroxytryptamine] the “10–90% Activation rise time” value ([1]; 10 µM 5-HT) was 797 ± 108 ms, the “Imax (peak current)” value [1, 6] was 2500±500 nA and the “Desensitization time constant τ” value ([1]; prolonged 10 µM 5-HT, may be limited by solution exchange) was 6 ± 1 s. For the same compound, the “Channel function (5-HT induced current)” value [2] was “non-functional channels”, the “10–90% Activation rise time” value ([3]; 10 µM 5-HT) was 487 ± 25 ms and the “Imax (peak current)” value [3, 6] was 7100±400 nA. For the same compound, the “Desensitization time constant τ” value ([3]; prolonged 10 µM 5-HT) was 56 ± 9 s, the 5-HT induced current [4] was “neither construct generated any 5-HT induced currents” and the “10–90% Activation rise time” value ([5]; 10 µM 5-HT) was 1055 ± 17 ms. The “Desensitization time constant τ” value ([5]; initial 10 µM 5-HT application, may be limited by solution exchange) was 7 ± 1 s, the “Imax (peak current)” value ([5]; initial application of 10 µM 5-HT, Xenopus oocytes, -60 mV) was 1800±380 nA and the “Current induced by subsequent 5-HT application” value ([5]; subsequent 5-HT application 360 s later) was 159±5 nA.
